According to patent publication US4857549A, “Antitumor compounds” (priority 1988, dated 1989):
Where “and” joins values, the source holds several entries; their conditions need not be identical. Identical values can stand only once. Like-named read-outs stand apart in the source and are kept apart here.

Tests used:
[1] = tested on: B16 melanoma cells (highly metastatic subline, F10); test: B16 melanoma in vitro cloning (colony forming) assay, 2 hour exposure; type: cell-based; details: read-out: IC50: concentration which inhibits cloning efficiency of B16 melanoma cells by 50%
Description: Initially, the cytotoxic activity of the Formula (I) and Formula (IA) compounds used in the pharmaceutical compositions and methods of treatment of the instant invention was evaluated in vitro using B16 melanoma cells according to the following assay:
B16 melanoma (highly metastatic subline, F10) are used and maintained as monolayer cultures in Minimal Essential Media (Grand Island Biological Co., Grand Island, N.Y. ) supplemented with 10% calf serum, 1% antibiotics in a 5% CO2 humidified incubator at 37° C. Asynchronous populations of cells are harvested and replated to 5000 cells/plate in sterile 60 mm×15 mm petri plates. Plates are incubated overnight to allow attachment of the cells to the plate. Cells are treated with a Formula (I) or Formula (IA) compound or cisplatin under sterile conditions, allowed to react for 2 hours followed by aspiration of medium. Plates are washed one time with 5 ml of phosphate buffered saline (PBS), followed by the addition of 5 ml of fresh media. Plates are incubated for 5 days at 37° in a CO2 incubator. Viability is measured by the ability of a cell to form a colony of greater than 50 cells. Colonies are fixed with 0.5% crystal violet in 95% ethanol. Plates are dried and counted with a Biotran III Automatic Count Totalizer (New Brunswick Scientific Co., Edison, N.J.). Mean and standard deviation of triplicate samples are determined for each drug concentration. The data are analyzed by plotting the log of the survival fraction (number of colonies in drug treated plates/number of colonies in controls) versus the drug concentration.
^(a) concentration which inhibits cloning efficiency of B16 melanoma
cells by 50% on a 2hour exposure.

[2] = tested on: M5076 reticulum cell sarcoma; test: ip M5076 reticulum cell sarcoma assay in mice; details: for MTD (maximally tolerated dose) / ILS max (maximum increase in lifespan): Table C, ip qD × 10; for MTD (maximally tolerated dose): B6D2F1 female mice; for ILS max (maximum increase in lifespan): ip M5076 sarcoma mice, slash = separate experiments, compound 2: seven experiments; for activity in the ip M5076 reticulum cell sarcoma assay: in words, based on Tables C and D
Description: Another chemosensitive tumor model is intraperitoneally (ip) implanted M5076 reticulum cell sarcoma in mice. In this system B6D2F1 female mice are inoculated with 0.5 ml of a 10 percent weight:volume (w:v) brei of M5076 prepared from pooled subcutaneous (sc) tumors excised at about 21 days from c57B1/6 donor mice. Drugs are administered ip. Daily treatment is begun 24 hours after implantation and is continued for ten days. The treatment regimen for M5076 is more prolonged than for P388 because of the slower growth rate and longer control survival time of the M5076 tumor.

in vivo = details: mouse, ip
[3] = Table B, B6D2F1 female mice, ip qD × 5
[4] = Table B, ip P388 leukemia mice, ip days 1-5, slash-separated figures are separate experiments, compound 2: 35 experiments
[5] = Mus musculus, B16, Table AI, Formula (IA)

Row | SMILES | IC50 ([1]; Table A, Formula (I)) [µM] | MTD (maximally tolerated dose) [2] [mg/kg] | ILS max (maximum increase in lifespan) [2] [%] | MTD (maximally tolerated dose) (P388 leukemia; [3]) [mg/kg] | ILS (maximum increase in lifespan) (P388 leukemia; [4]) | IC50 [1, 5] [µM] | MTD (in vivo) [mg/kg] | further results
1 | [Cl][Au][PH](CC[PH]([Au][Cl])(C1CCCCC1)C1CCCCC1)(C1CCCCC1)C1CCCCC1 [Compound 22, μ-[1,2-Bis(Dicyclohexylphosphino)Ethane]Bis[Chlorogold(I)]] | 14 | 8 | 27 | 16 | – | – | – | –
2 | [Cl][Au-][P+](CCCCCC[P+]([Au-][Cl])(c1ccccc1)c1ccccc1)(c1ccccc1)c1ccccc1 [Compound 6, μ-[1,6-Bis(Diphenylphosphino)Hexane]Bis[Chlorogold(I)]] | 2 | – | – | – | – | – | – | ILS (maximum increase in lifespan) (P388 leukemia; mouse, in vivo, ip): 40% and 35%; MTD (maximally tolerated dose) (P388 leukemia; mouse, in vivo, ip): 4 mg/kg
3 | [Cl][Au][PH](C=C[PH]([Au][Cl])(c1ccccc1)c1ccccc1)(c1ccccc1)c1ccccc1 [Compound 7, μ-[Cis-1,2-Bis(Diphenylphosphino)Ethylene]Bis[Chlorogold(I)]] | 7 | 3 | 90 | 4 | 105% and 77% | – | – | activity in the ip M5076 reticulum cell sarcoma assay [2]: good activity
4 | [Cl][Au][PH](C[PH]([Au][Cl])(c1ccccc1)c1ccccc1)(c1ccccc1)c1ccccc1 [Compound 1, μ-[1,3-Bis(Diphenylphosphino)Methane]Bis[Chlorogold(I)]] | 6 | – | – | 50 | 62% and 50% | – | – | –
5 | [Cl][Au][PH](CCC[PH]([Au][Cl])(c1ccccc1)c1ccccc1)(c1ccccc1)c1ccccc1 [Compound 3, μ-[1,3-Bis(Diphenylphosphino)Propane]Bis[Chlorogold(I)]] | 2 | 5 | 69 | 8 | – | – | – | activity in the ip M5076 reticulum cell sarcoma assay [2]: good activity
6 | [Cl][Au]([Cl])([Cl])[PH](CC[PH](c1ccccc1)(c1ccccc1)[Au]([Cl])([Cl])[Cl])(c1ccccc1)c1ccccc1 [Compound 12, μ-[1,2-Bis(Diphenylphosphino)Ethane]Bis[Trichlorogold(III)]] | 4 | 8 | 74 | 16 | 95% and 62% | – | – | –
7 | [2H]c1c([2H])c([2H])c(P(CCP(c2c([2H])c([2H])c([2H])c([2H])c2[2H])c2c([2H])c([2H])c([2H])c([2H])c2[2H])c2c([2H])c([2H])c([2H])c([2H])c2[2H])c([2H])c1[2H] [Compound 43, 1,2-Ethanediyl-bis[di(phenyl-d5)phosphine]] | – | – | – | – | – | 50 | 24 | –
8 | [Cl][Au-][P+](CCCCC[P+]([Au-][Cl])(c1ccccc1)c1ccccc1)(c1ccccc1)c1ccccc1 [Compound 5, μ-[1,5-Bis(Diphenylphospinio)Pentane]Bis[Chlorogold(I)]] | 2 | – | – | 4 | 55% | – | – | –
9 | [Cl][Au][PH](CCCC[PH]([Au][Cl])(c1ccccc1)c1ccccc1)(c1ccccc1)c1ccccc1 [Compound 4, μ-[1,4-Bis(Diphenylphosphino)Butane]Bis[Chlorogold(I)]] | 3 | – | – | – | 45% and 40% | – | – | MTD (maximally tolerated dose) (P388 leukemia; mouse, in vivo, ip): 6 mg/kg
10 | c1ccc(P(CCCP(c2ccccc2)c2ccccc2)c2ccccc2)cc1 [Compound 37, bis(1,3-diphenylphosphino)propane] | – | – | – | – | – | 72 | 32 | –
11 | C[C@H](CP(c1ccccc1)c1ccccc1)P(c1ccccc1)c1ccccc1 [Compound 36, R-(+)-bis(1,2-diphenylphosphino)propane] | – | – | – | – | – | 50 | 32 | –
12 | c1ccc(P(c2ccccc2)c2ccccc2P(c2ccccc2)c2ccccc2)cc1 [Compound 40, Bis(1,2-Diphenylphosphino)Benzene] | – | – | – | – | – | 28 | 32 | –
